Laboratory results: US20250093329A1, “SCREENING OF COMPOUNDS” (THE UNIVERSITY OF TULSA, priority 2022, published 2025)

What was measured:
Format in all cases: cell-based
lung cancer cells A549 = assay: Rapid one hour CellTiter-Glo ATP screening (FIGS. 16-18, 21-24); conditions: for effectiveness by POC (FIG. 17): 10-30 μM; for effectiveness by POC (FIG. 24): L15 media
Description: (§1) When used to identify compounds for specific patients, the following steps will be carried out: • Individualized patient cells will be acquired from a tumor biopsy and cultured/grown in patient blood serum and/or plasma. (In most instances the cells will be obtained using a needle biopsy; i.e. fine needle aspiration biopsy. Optionally, the cells may be obtained from resected tumor (i.e. excisional biopsy, which is an attempt at complete tumor removal), and/or a core biopsy; (i.e. removal of part of the tumor). Alternatively, cells may be obtained from blood draw samples, which would contain leukemia, lymphoma and myeloma cells.) • The cells (as few as 100 cells per experiment) will be screened directly in patient blood serum and/or plasma in the absence or presence of glycolysis inhibitor, 2-deoxyglucose (2DG) using a rapid (1-2 hr) screening assay (CellTiter-Glo, or “CTG”). • NOTE: while the discussion herein focuses on CTG, other assays suitable for measuring changes in ATP levels will perform equally as well. […] DMEM contains glucose, but L15 has substituted glucose with galactose. This means that in DMEM, 2DG is added to inhibit glycolysis; but in L15, the addition of 2DG is unnecessary to achieve the same result as the lack of glucose in L15 precludes access to the metabolic pathway that would utilize glucose. […] The compounds identified with compound numbers 140-161 as depicted in FIGS. 11 and 12 were tested in this manner. NOTE: compound number 141 is Gramicidin, also known as Gramicidin D. This antibiotic is identified by CAS number 1393-88-0. • The rapid screening assay provides evidence of unexpected drug activity for known drugs against cancer cell lines. Thus, the screening of FDA-approved drugs for synergistic activity with metabolic inhibitors can provide anticancer drugs from drugs currently used for other purposes.
The data presented in FIGS. 16-33 was developed using compounds 140-161 as depicted in FIGS. 11 and 12. The graphs of FIGS. 16-33 provide a direct comparison of the rapid screening method wherein the tests were carried out over one hour (CTG) using Dulbecco's Modified Eagle Medium (DMEM), […] 2DG and L15 media (described below), a cell media that is missing glucose; the equivalent to DMEM plus 2DG. Compounds 140-161 were screened against lung cancer cells designated A549. Similar results are obtained in most cases, but a few examples show significant enhancement of activity in L15. As used in the discussion below, Rot=rotenone, and 2DG+Rot=a positive control (ATP should be inhibited to a high degree).
FIG. 16 provides a comparison of DMEM and L15 media at 50-200 μM. After one hour of exposure and assessment of the ATP values using CellTiter-Glo assay, the “percent of control” (POC) value is determined with respect to the DMSO control. As reflected by FIG. 16, the following compounds, at the indicated concentrations, would be considered effective against the cancer cells of line A549: 140, 142, 149, 150, 155, 156, 159, 160, 161. The same compounds were tested at 10-30 μM with the results depicted in FIG. 17. At these concentrations, the following compounds would be considered effective at least one concentration level: 141, 155, 156, 159, 160.
FIG. 18 provides a comparison of DMEM with 10 mM 2DG with the compounds of interest at concentrations of 50 to 200 μM and 10 to 30 μM to L15 Media with the compounds of interest at concentrations of 50 to 200 μM and 10 to 30 μM. The compounds were tested against the same cancer cell line with one hour of exposure and CTG assay with POC reported against a DMSO control. Under the reported conditions the following compounds would be considered to have effectiveness in treating the cancer cell line at least one concentration level: 140, 141, 149, 155, 156, 159, 160, 161.
FIGS. 21 and 22 provide test data developed using the rapid testing method described above. […]

[1] = system: lung cancer cell line NCI H196; assay: Rapid one hour CellTiter-Glo ATP screening in L15 (FIG. 25); conditions: L15 media, one hour CTG, at least one concentration level
Description: [The source words this procedure for another cell line and reports this cell line under the same test.] (§2) When used to identify compounds for specific patients, the following steps will be carried out: • Individualized patient cells will be acquired from a tumor biopsy and cultured/grown in patient blood serum and/or plasma. (In most instances the cells will be obtained using a needle biopsy; i.e. fine needle aspiration biopsy. Optionally, the cells may be obtained from resected tumor (i.e. excisional biopsy, which is an attempt at complete tumor removal), and/or a core biopsy; (i.e. removal of part of the tumor). Alternatively, cells may be obtained from blood draw samples, which would contain leukemia, lymphoma and myeloma cells.) • The cells (as few as 100 cells per experiment) will be screened directly in patient blood serum and/or plasma in the absence or presence of glycolysis inhibitor, 2-deoxyglucose (2DG) using a rapid (1-2 hr) screening assay (CellTiter-Glo, or “CTG”). • NOTE: while the discussion herein focuses on CTG, other assays suitable for measuring changes in ATP levels will perform equally as well. […] DMEM contains glucose, but L15 has substituted glucose with galactose. This means that in DMEM, 2DG is added to inhibit glycolysis; but in L15, the addition of 2DG is unnecessary to achieve the same result as the lack of glucose in L15 precludes access to the metabolic pathway that would utilize glucose. […]

[2] = Rapid one hour CellTiter-Glo ATP screening in L15 (FIG. 26); conditions: MCF10A; L15 media; one hour CTG; at least one concentration level
[3] = system: ovarian cancer cell line HeLa; assay: Rapid one hour CellTiter-Glo ATP screening in L15 (FIG. 28); conditions: for effectiveness by POC (FIG. 28): L15 media, one hour CTG, at least one concentration level
Description: [The source words this procedure for another cell line and reports this cell line under the same test.] as §1
(§3) The data presented in FIGS. 16-33 was developed using compounds 140-161 as depicted in FIGS. 11 and 12. […]

[4] = system: breast cancer cell line MCF7; assay: Rapid one hour CellTiter-Glo ATP screening in L15 (FIG. 29); conditions: for effectiveness by POC (FIG. 29): L15 media, one hour CTG, at least one concentration level
Description: [The source words this procedure for another cell line and reports this cell line under the same test.] as §1, §3

[5] = system: pancreatic cancer cell line SW-1990; assay: Rapid one hour CellTiter-Glo ATP screening in L15 (FIG. 30); conditions: for effectiveness by POC (FIG. 30): L15 media, one hour CTG, at least one concentration level
Description: [The source words this procedure for another cell line and reports this cell line under the same test.] as §1, §3

[6] = system: A549, NCI H196 and MCF10A; assay: Comparison of effectiveness between cell lines (FIG. 27); conditions: 50 μM to 200 μM, L15, one hour CTG
Procedure: FIG. 27 provides a comparison of the effectiveness of the compounds against A549, NCI H196 and MCF10A at concentrations in the range of 50 μM to 200 μM.

[7] = system: pancreatic cancer cell line CFPAC-1; assay: Rapid one hour CellTiter-Glo ATP screening in L15 (FIG. 31)
Description: [The source words this procedure for another cell line and reports this cell line under the same test.] as §2

MCF7 and MCF10A = assay: Comparison of cancerous and non-cancerous cells (FIG. 33); conditions: 10 μM to 30 μM
Procedure: FIG. 33 compares the impact of compounds 140-161 on breast cancer cell line MCF7 and non-cancerous […] cells MCF10A. All compounds tested were in the range of 10 μM to 30 μM.

[8] = DMEM and L15 media, one hour, at least one concentration level
[9] = 1-8 μm, 10-30 μM and 50-200 μM, one hour CTG, at least one concentration level

Gramicidin [Compound 141]
effectiveness by POC (FIG. 17) (lung cancer cells A549; [8]): effective | effectiveness by POC (FIG. 24) (lung cancer cells A549; [9]): likely to be effective | effectiveness by POC (FIG. 25) [1]: likely effective | effectiveness by POC (FIG. 26) [2]: likely effective | effectiveness by POC (FIG. 28) [3]: likely effective | effectiveness by POC (FIG. 29) [4]: likely effective | effectiveness by POC (FIG. 30) [5]: likely effective | subtype specificity (FIG. 27) [6]: subtype specificity

CN(C)CCCOc1nn(Cc2ccccc2)c2ccccc12 [Compound 156, benzydamine]
effectiveness (FIG. 23) (lung cancer cells A549; 145 μM in L15): unexpected effectiveness | effectiveness by POC (FIG. 17) (lung cancer cells A549; [8]): effective | effectiveness by POC (FIG. 16) (lung cancer cells A549; DMEM and L15 media, 50-200 μM, one hour, CellTiter-Glo, DMSO control): effective | effectiveness by POC when combined with 2DG (FIG. 22) (lung cancer cells A549; DMEM with 10 mM 2DG, 1-8 μm, 10-30 μM and 50-200 μM, one hour CTG, at least one concentration level): effective | effectiveness by POC (FIG. 24) (lung cancer cells A549; [9]): likely to be effective | effectiveness by POC (FIG. 26) [2]: likely effective | effectiveness against ovarian cancer (FIG. 28) ([3]; 145 μM, L15): effective | effectiveness by POC (FIG. 28) [3]: likely effective | effectiveness against breast cancer (FIG. 29) ([4]; 145 μM, L15): effective | effectiveness by POC (FIG. 29) [4]: likely effective | effectiveness against pancreatic cancer (FIG. 30) ([5]; 145 μM, L15): effective | effectiveness by POC (FIG. 30) [5]: likely effective | effectiveness against pancreatic cancer (FIG. 31) ([7]; 145 μM, L15): effective | effectiveness by POC (FIG. 31) ([7]; L15 media, one hour CTG, at least one concentration level): likely effective | subtype specificity (FIG. 27) [6]: subtype specificity | impact on cancerous versus non-cancerous cells (FIG. 33) (MCF7 and MCF10A): significantly more impact on the cancerous cells
